PubChem BioAssay (NCI)
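Values below derive from 48-hour exposures of cells grown in 96-well plates, with endpoints linearly interpolated between the two concentrations bracketing the appropriate inhibition level. GI50 marks 50% less growth. TGI is the concentration that stops growth completely.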

What was measured:
Assay in all cases: NCI-60 cell line screen, 48 h
[1] = test system: COLO 205 colon
[2] = test system: SF-295 CNS
[3] = test system: U251 CNS
[4] = test system: SN12C renal
[5] = test system: IGROV1 ovarian
[6] = test system: 786-0 renal
[7] = test system: K-562 leukemia
[8] = test system: NCI-H460 lung
[9] = test system: UACC-62 melanoma
[10] = test system: NCI-H23 lung
[11] = test system: CAKI-1 renal

Compound | TGI [1] | TGI [2] | TGI [3] | TGI [4] | TGI [5] | TGI [6] | TGI [7] | TGI [8] | TGI [9] | TGI [10] | TGI [11] | GI50 [2] | GI50 [3] | GI50 [4] | GI50 [5] | GI50 [7] | GI50 [8] | GI50 [9] | GI50 [11] | GI50 [10]
Cc1cnc2c(c1)C(=O)C1=C(OC(C)(C)CC1O)C2=O (stereo unspecified) | 32.4 µM | 26.6 µM | 29.3 µM | 29.8 µM | 28.9 µM | 28.2 µM | 46.4 µM | 23.9 µM | 12.6 µM | 26.2 µM | – | – | – | – | – | – | – | – | – | –
CCN(CC)CCCNc1nc(=O)[nH]c(C)c1C(=O)Nc1ccc2c(c1)c1ccccc1n2CC | > 100 µM | > 100 µM | > 100 µM | > 100 µM | > 100 µM | > 100 µM | > 100 µM | – | > 100 µM | > 100 µM | > 100 µM | – | – | – | – | – | – | – | – | –
C=CC(Br)(CBr)CCC(Br)C(C)(C)Cl (stereo unspecified) | 4.36 µM | 3.6 µM | 2.92 µM | 16.5 µM | 12.8 µM | 5.64 µM | 5.1 µM | 6.06 µM | 17.3 µM | 12.9 µM | – | – | – | – | – | – | – | – | – | –
COC(=O)c1ccccc1/C=C1\Cc2c(C)cc(C)cc2C1=O | – | > 100 µM | > 100 µM | > 100 µM | > 100 µM | > 100 µM | > 100 µM | > 100 µM | > 100 µM | – | > 100 µM | – | – | – | – | – | – | – | – | –
CCCCCCCCCCCCOc1ccc(/C=C/C2=[N+](CCCl)CCO2)cc1 | > 100 µM | > 100 µM | 58.4 µM | > 100 µM | 77.6 µM | 42.7 µM | > 100 µM | > 100 µM | > 100 µM | – | > 100 µM | – | – | – | – | – | – | – | – | –
NCCSCc1ccccc1Cl | – | > 100 µM | > 100 µM | > 100 µM | > 100 µM | > 100 µM | 76.6 µM | > 100 µM | > 100 µM | 95 µM | > 100 µM | – | – | – | – | – | – | – | – | –
CC(C)(C)OC/C=C1\C(=O)O[C@H]2C[C@@H](O[Si](C)(C)C(C)(C)C)C[C@@H]12 | > 100 µM | > 100 µM | > 100 µM | > 100 µM | > 100 µM | > 100 µM | > 100 µM | > 100 µM | – | > 100 µM | > 100 µM | – | – | – | – | – | – | – | – | –
COc1ccc(N=Nc2c(C)c(C#N)c(=S)n(C3OC(CO)C(O)C(O)C3O)c2C)cc1 (stereo unspecified) | > 100 µM | > 100 µM | > 100 µM | – | > 100 µM | > 100 µM | > 100 µM | > 100 µM | > 100 µM | > 100 µM | > 100 µM | – | – | – | – | – | – | – | – | –
O=C1NC(N2CCCCC2)=N/C1=C\c1ccccc1O | > 100 µM | > 100 µM | > 100 µM | > 100 µM | > 100 µM | > 100 µM | > 100 µM | – | – | > 100 µM | > 100 µM | – | – | – | – | – | – | – | – | –
COc1cc(-c2n/c(=C\c3c(O)[nH]c4cc(Cl)ccc34)cc3c2=Nc2ccccc2-3)cc(OC)c1OC | – | 5.19 µM | 3.36 µM | 26.1 µM | 51.1 µM | – | 48.6 µM | 81.7 µM | 14.1 µM | 23.2 µM | 60 µM | 2.17 µM | 1.71 µM | 4.15 µM | 5.56 µM | 3.57 µM | 4.56 µM | 3.4 µM | 10.9 µM | 3.57 µM
